Source: article PMC5522996, “Big conductance calcium‐activated potassium channel openers control spasticity without sedation” (British Journal of Pharmacology, 2017)

Experiments:
[1] = system: spastic ABH mice with EAE; test: Spasticity: resistance to hindlimb flexion against a strain gauge
[2] = system: ABH mice; test: Temperature testing (hypothermia); assay type: in vivo, mouse; settings: for Temperature loss: 10 mg·kg^−1 i.v.
Method: These recordings were assessed 20 min following administration of compounds. Results are expressed as mean ± SEM, and were analysed by Student's t‐test or a one‐way ANOVA with Bonferroni post hoc test using Sigma/StatV3/Sigmpaplot V9 or V11 software (Pryce et al., 2014).

[3] = system: ABH mice; test: Open‐field activity monitoring (hypomotility); assay type: in vivo, mouse
Method: Motor activity was assessed using 27.9 × 27.9 cm open field activity monitor chambers and computer software (Med Associates Inc, St. Albans, VT, USA.). This was typically performed in a darkened room. Recordings were initiated once the mouse entered the chamber and continued for 5 min. These chambers, allowing four simultaneous recordings of individual mice and were fitted with infrared beams that could detect movement in the X, Y planes. The total distance travelled (cm) was recorded. Results are expressed as mean ± SEM. These were analysed by Student's paired t‐test or a one‐way ANOVA with Bonferroni post hoc test, using SigmaStat V3/Sigmaplot V9 or V11 software (Systat Ltd Hounslow, UK. Al‐Izki et al., 2012).

[4] = Plasma, brain and spinal cord levels in ABH mice with spastic EAE; assay type: in vivo, mouse; settings: after 5 mg·kg^−1 p.o. VSN16R, ABH mice with spastic EAE
Method: The stability of compounds when subjected to hepatic and plasma degradation was assessed in vitro by Inpharmatica, Cambridge, UK. Compounds (1 μM) were incubated with either pooled mouse liver microsomes (0.1 mg protein mL^−1) or pooled mouse plasma at 37°C for 0, 5, 10, 20 and 40 min before termination with acetonitrile containing warfarin as an analytical internal standard. Samples were centrifuged, and the resultant supernatant analysed for parent compound. The mass responses at baseline were taken as the 100% reference values against which the disappearance of the compound was measured. The natural log of the % remaining values was used to generate linear plots of disappearance of the compounds. Half‐life values were calculated from the slope of these plots. Hepatocyte metabolism was assessed by Cyprotex, Macclesfield, and 10 μM VSN16R was incubated with primary mouse, rat, monkey (Macaque) and human hepatocytes for 1 h, and the presence of metabolites was assessed using liquid […] mass spectroscopy. The stability of VSN16R was assessed in vivo by Inpharmatica, Cyprotex and Charles Rivers, Cambridge. Blood (plasma) samples were obtained prior to and 5 min to 24 h after drug administration of 2–5 mg·kg^−1 i.v. or 5 mg·kg^−1 p.o. VSN16R into outbred mice and rats (n = 3 per time point). In addition, plasma, brain and spinal cord samples were obtained from ABH with spastic EAE. Immediately after blood collection, the brain and spinal cord were removed and then stored at −20°C prior to assay. Tissue samples were weighed, homogenized and centrifuged, and the lysates generated. Brain lysates and plasma were assayed by LC–MS methods by Inpharmatica/Charles Rivers, Cambridge, UK. This was also performed using a Waters Xevo TQ or API4000, AB Sciex mass spectrometer using spiked samples as standards. PK Solutions Software (Summit Research Services, Montrose, CO, USA), AB Sciex Analyst software combined with Thermo Fisher Scientific Watson LIMS processing and reporting software or WinNonLin pharmacokinetic or PK solutions 2.0 software (Summit Research Services, Montrose CO, USA) were used to produce PK parameters. Data are expressed as mean ± SEM. The detection limit of VSN16R was 2 ng·mL^−1 in plasma and brain and 14 ng·mL^−1 in spinal cords. The detection limit of VSN22R was 2 ng·mL^−1 in plasma and 0.1 ng·mL^−1 for VSN44R in plasma. Pharmacokinetics in toxicological samples in rats (n = 6 per group), dogs (n = 6 per group) and humans (n = 6 per group) were performed by Charles Rivers (Edinburgh, UK).

[5] = system: mouse vas deferens; test: Electrically‐evoked contraction of the mouse vas deferens; assay type: cell-based; settings: Mus musculus; read-out: EC50, inhibition of electrically‐evoked contraction
Method: Vasa deferentia were obtained from outbred MF‐1 mice and mounted vertically in a 4 mL organ bath at an initial tension of 0.5 g. The baths contained Mg^2+‐free Krebs solution (NaCl 118.2 mM, KCl 4.75 mM, KH2PO4 1.19 mM, NaHCO3 25.0 mM, glucose 11.0 mM and CaCl2·6H2O 2.54 mM), which was kept at 35–36°C and bubbled with 95% O2 and 5% CO2. […] Contractions were monitored by a computer using a data recording and analysis system as described previously (Ross et al., 2001). After placement in an organ bath, each tissue was subjected to a stimulation‐free period of 10 min and then stimulated for 10 min. Tissues were then subjected to alternate periods of stimulation (5 min) and rest (10 min) until consistent twitch amplitudes were obtained. This equilibration procedure was followed by a stimulation‐free period of 25 min. Tissues were then stimulated for 5 min after which the first agonist addition was made and stimulation continued until the end of the experiment.

[6] = molecular target: T1, BKCa channel (Homo sapiens, UniProt Q12791+Q86W47); test: Single‐channel inside‐out patch clamp, EA.hy926 cells; assay type: cell-based; settings: 3 μM, inner surface of membrane, 40 mV, 0.3 μM free Ca^2+
T1 construct: host or cells: EA.hy926 endothelial cells
T1 sequence (Q12791 whole entry): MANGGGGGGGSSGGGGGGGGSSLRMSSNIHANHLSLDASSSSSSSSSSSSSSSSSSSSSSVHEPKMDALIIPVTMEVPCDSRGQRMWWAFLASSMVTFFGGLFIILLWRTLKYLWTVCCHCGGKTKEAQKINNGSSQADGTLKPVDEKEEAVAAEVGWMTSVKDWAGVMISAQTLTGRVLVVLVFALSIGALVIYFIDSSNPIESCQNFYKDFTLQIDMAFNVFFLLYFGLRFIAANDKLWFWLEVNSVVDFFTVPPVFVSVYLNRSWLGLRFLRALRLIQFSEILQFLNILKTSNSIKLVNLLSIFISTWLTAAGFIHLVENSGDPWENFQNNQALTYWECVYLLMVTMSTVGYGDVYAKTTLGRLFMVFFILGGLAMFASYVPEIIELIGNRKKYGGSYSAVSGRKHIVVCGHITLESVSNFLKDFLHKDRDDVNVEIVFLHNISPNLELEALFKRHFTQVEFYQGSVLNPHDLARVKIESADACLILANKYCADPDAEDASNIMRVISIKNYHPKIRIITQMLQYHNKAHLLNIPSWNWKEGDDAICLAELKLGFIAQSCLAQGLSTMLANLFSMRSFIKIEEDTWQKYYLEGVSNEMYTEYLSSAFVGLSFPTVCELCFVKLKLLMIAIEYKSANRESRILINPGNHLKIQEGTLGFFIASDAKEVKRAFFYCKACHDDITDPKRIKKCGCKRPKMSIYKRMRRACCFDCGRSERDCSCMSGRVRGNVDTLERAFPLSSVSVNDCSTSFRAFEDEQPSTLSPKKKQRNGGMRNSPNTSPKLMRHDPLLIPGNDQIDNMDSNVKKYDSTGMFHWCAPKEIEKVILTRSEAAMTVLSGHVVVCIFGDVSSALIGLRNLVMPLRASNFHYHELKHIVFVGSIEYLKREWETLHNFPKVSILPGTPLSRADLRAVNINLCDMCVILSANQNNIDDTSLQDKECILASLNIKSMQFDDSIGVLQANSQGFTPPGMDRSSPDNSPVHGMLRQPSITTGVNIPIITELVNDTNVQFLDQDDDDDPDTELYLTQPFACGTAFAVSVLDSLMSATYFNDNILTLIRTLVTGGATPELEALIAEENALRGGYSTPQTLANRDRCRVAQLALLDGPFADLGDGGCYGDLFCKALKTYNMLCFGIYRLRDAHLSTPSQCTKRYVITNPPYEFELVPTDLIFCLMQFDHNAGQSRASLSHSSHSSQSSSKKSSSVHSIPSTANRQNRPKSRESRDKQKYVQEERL
T1 sequence (Q86W47 whole entry): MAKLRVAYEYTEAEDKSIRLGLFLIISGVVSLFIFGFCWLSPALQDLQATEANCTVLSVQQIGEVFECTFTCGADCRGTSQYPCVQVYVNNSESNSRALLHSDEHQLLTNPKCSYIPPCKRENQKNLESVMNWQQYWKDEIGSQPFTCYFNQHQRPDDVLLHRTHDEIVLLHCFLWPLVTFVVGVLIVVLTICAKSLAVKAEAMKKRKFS
Method: The human EA.hy926 endothelial cells (ATCC, Manassas, USA) were grown in DMEM containing 10% FCS and 1% HAT (5 mM hypoxanthine, 20 μM aminopterin and 0.8 mM thymidine) and were maintained in an incubator at 37°C in 5% CO2 atmosphere (Bondarenko et al., 2013). Human HNC‐2 neuronal cells were obtained from ATCC. For experiments, cells were plated on glass coverslips. Single‐channel recordings were obtained from excised inside‐out membrane patches in symmetrical solutions using the patch‐clamp technique. All patch‐clamp experiments were performed at room temperature with the use of a water hydraulic micromanipulator (WR‐6, Narishige, Japan). […] The pipettes were filled with 140 mM KCl, 10 mM HEPES, 1 mM MgCl2, 5 mM EGTA and […] CaCl2 buffered to pH 7.2 by adding KOH. Cells were super‐perfused with a bath solution containing 140 mM NaCl, 5 mM KCl, 1.2 mM MgCl2, 10 mM HEPES, 10 mM glucose and 2.4 mM CaCl2. Following gigaseal formation, bath solution was switched to the following: 140 mM KCl, 10 mM HEPES, 1 mM MgCl2, 5 mM EGTA and a designated free Ca^2+ concentration, which was adjusted by adding different amounts of CaCl2 buffered to pH 7.2. (Bondarenko et al., 2011; Bondarenko et al., 2013). Single‐channel activity was expressed as NPo, where N represents the number of functional ion channels in the membrane patch and Po represents the open channel probability determined from idealized traces (Bondarenko et al., 2011). NPo was obtained from ≥20 s of continuous recording under each experimental condition. The effect of VSN16R was estimated after 3 min of continuous exposure to VSN16R‐containing solution. Data were analysed by ANOVA, and statistical significance was evaluated using Scheffés post hoc test of the Prism 5 software for Windows (GraphPad Software).

[7] = system: rat mesenteric artery; test: Methoxamine‐evoked contraction of rat mesenteric artery; assay type: cell-based; settings: 50 nM blocker pretreatment
Method: Vessels were equilibrated and set to a basal tension of 2 to 2.5 mN. The integrity of the endothelium was assessed by pre‐contracting the vessel with 10 μM methoxamine (an α1‐adrenoceptor agonist), followed by relaxation with 10 μM carbachol (a muscarinic acetylcholine receptor agonist); vessels showing relaxations of greater than 90% were designated as endothelium‐intact. When the endothelium was not required, it was removed by rubbing the intima with a human hair; carbachol‐induced relaxation of less than 10% indicated successful removal. After the test for endothelial integrity, vessels were left for 30 min and then pre‐contracted with 10 μM methoxamine. This was followed by construction of a cumulative concentration–relaxation curve to VSN16R (10 nM–1 μM). […] Most experiments were performed in matched vessels; effects of blockers or endothelial removal were compared with the control responses obtained in separate vessels of the same rats. All relaxant responses are expressed as percentage relaxation of the tone induced by methoxamine. Values are given as mean ± SEM. Statistical comparisons of concentration‐dependent responses were made by two‐way ANOVA using Prism 4 (GraphPad Software, Inc, San Diego, CA, USA).

[8] = i.p., 40 mg·kg^−1 BMS‐204352, 20 mg·kg^−1 NS‐1619, 10 mg·kg^−1 NS‐11021

Q: Which Inhibition of spasticity [1, 8] does the source give for `COc1ccc(Cl)cc1[C@]1(F)C(=O)Nc2cc(C(F)(F)F)ccc21` [BMS‐204352, reference compound] here?
A: Its Inhibition of spasticity is “significantly inhibit spasticity”.

Q: What about the Sedation [1, 8] of the same molecule?
A: The Sedation was “without causing sedation”.

Q: Which “Inhibitory response on repeated dosing” value ([1]; repeated 25 mg·kg^−1 s.c.) does the source give for `N#Cc1cc2[nH]c(=O)c(=O)[nH]c2cc1[N+](=O)[O-]` [CNQX, reference compound] here?
A: The value was “inhibitory responses that diminished over time”.

Q: What does the source list for `CCCCCCC(C)(C)c1cc(O)c2c(c1)OC(C)(C)[C@@H]1CC=C(C(=O)O)C[C@@H]21` [CT3, 1′, 1′‐dimethylheptyl‐M8‐tetrahydrocannabinol‐11‐oic acid]?
A: Temperature loss ([2]; 20 min, spastic animals): 2.3 ± 0.4 °C; Temperature loss ([2]; healthy mice): 0.0 ± 0.1 °C

Q: Which Inhibition of spasticity [1, 8] does the source give for `O=c1[nH]c2cc(C(F)(F)F)ccc2n1-c1cc(C(F)(F)F)ccc1O` [NS‐1619, reference compound] here?
A: The Inhibition of spasticity was “significantly inhibit spasticity”.

Q: What about the Sedation [1, 8] of the same molecule?
A: The Sedation was “without causing sedation”.

Q: What does the source list for `FC(F)(F)c1cc(NC(=S)Nc2ccc(Br)cc2-c2nn[nH]n2)cc(C(F)(F)F)c1` [NS‐11021, reference compound]?
A: Inhibition of spasticity [1, 8]: significantly inhibit spasticity; Sedation [1, 8]: without causing sedation

Q: For `Cc1c(C(=O)c2cccc3ccccc23)c2cccc3c2n1[C@H](CN1CCOCC1)CO3` [R(+)WIN55‐212], which “Hypomotility in open field” value ([3]; 1 mg·kg^−1 i.v., 30 min after administration) is on record?
A: Its value is “significant sedative effects”.

Q: And the Hypothermia ([2]; 1 mg·kg^−1 i.v., 20 min after administration)?
A: The Hypothermia was “significant sedative effects”.

Q: Which Inhibition of spasticity ([1]; 5 mg·kg^−1 i.v.) does the source give for `C[C@@H](NC(=O)c1cccc(/C=C\CCCC(=O)N(C)C)c1)C(=O)O` [VSN44R, (Z)‐(3‐(6‐(dimethylamino)‐6‐oxohex‐1‐en‐1‐yl)benzoyl)‐D‐alanine] here?
A: Its Inhibition of spasticity is “could inhibit the spasticity”.

Q: And the “Plasma level of the named species” value [4]?
A: The value was 2.1 ± 0.3 ng/mL.

Q: And the EC50 [5]?
A: Its EC50 is 1 nM.

Q: What about the “Single BKCa channel activity” value [6] of the same molecule?
A: Its value is “facilitated single BKCa channel activity”.

Q: For `NCC(CC(=O)O)c1ccc(Cl)cc1` (stereo not shown) [baclofen, reference compound], which Inhibition of spasticity ([1]; 5 mg·kg^−1 i.v.) is on record?
A: Its Inhibition of spasticity is “comparable inhibition of spasticity”.

Q: What about the “Inhibitory response on repeated dosing” value ([1]; repeated 5 mg·kg^−1 p.o.) of the same molecule?
A: Its value is “inhibitory responses that diminished over time”.

Q: And the “Sedation (hypomotility, hypothermia)” value ([3]; 5 mg·kg^−1 i.v.)?
A: The value was “significant sedation”.

Q: Which results are given for `CC(C)(O)[C@H]1O[C@H]2CC[C@@]3(C)[C@@](O)(CC[C@H]4Cc5c([nH]c6ccccc56)[C@@]43C)C2=CC1=O` [paxilline, reference compound]?
A: Effect on baseline level of spasticity ([1]; 1 mg·kg^−1 i.p.): did not influence the baseline level of spasticity; Effect of pretreatment on the action of VSN16R ([1]; 1 mg·kg^−1 i.p. before 5 mg·kg^−1 p.o. VSN16R): completely inhibit the action of VSN16R

Q: Which “Effect of the blocker on VSN16R vasorelaxation” value [7] does the source give for “Apamin: KCa2.2/2.3 (KCNN2/KCNN3) channel antagonist (CNCKAPETALCARRCQQHG)” here?
A: Its value is “small inhibitory effect”.

Q: Which “Effect of the blocker on VSN16R vasorelaxation” value [7] does the source give for charybdotoxin here?
A: The value was “significantly inhibited”.
